Measurements published in patent US20110039763A1, “TARGETED ANTIMICROBIAL MOIETIES” (C3 JIAN, INC., priority 2009, published 2011).
“Also recorded” adds a separate entry of the source.

System: microorganisms
Experiment: Targeting peptide binding to target microorganisms (Tables 3, 10, 12)
Details: peptide binding in aqueous buffers that varied with peptide solubility; preferably 1x PBS
From the text: In certain embodiments, the targeting moiety comprises one or more targeting peptides that bind particular bacteria, fungi, and/or yeasts, and/or algae, and/or viruses and/or that bind particular groups of bacteria, and/or groups of fungi, and/or groups of yeasts, and/or groups of algae.
In certain embodiments the targeting peptides include peptides comprising or consisting of one or more of the amino acid sequences shown in Table 3 (SEQ ID NOs:13-1566). In various embodiments the peptides include peptides comprising or consisting of the retro, inverso, retro-inverso, and/or beta form of one or more of the amino acid sequences shown in Table 3. Also contemplated are circular permutations of these sequences as well as peptides comprising or consisting of the retro, inverso, retro-inverso, and/or beta form of such circular permutations.
In certain embodiments the targeting peptide can comprise one or more domains capable of binding, specifically binding, or preferentially binding to a microorganism, e.g., a target microbial organism (see, e.g., Table 3). In certain embodiment, the targeting peptide be identified via screening peptide libraries. For example, a phage display peptide library can be screened against a target microbial organism or a desired antigen or epitope thereof. Any peptide identified through such screening can be used as a targeting peptide for the target microbial organism.

1T-62 (GCKGCAQRDPCAEPEPYFRLR; Peptide with targeting and/or antimicrobial activity)
Target(s) (microorganism bound by the targeting peptide): S. epidermidis; also recorded: P. aeruginosa

1T-63 (EPLILKELVRNLFLFCYARALR; Peptide with targeting and/or antimicrobial activity)
Target(s) (microorganism bound by the targeting peptide): S. aureus; also recorded: S. epidermidis; also recorded: C. jeikeium; also recorded: C. xerosis; also recorded: C. striatum; also recorded: P. aeruginosa

1T-64 (QTVHHIHMHVLGQRQMHWPPG; Peptide with targeting and/or antimicrobial activity)
Target(s) (microorganism bound by the targeting peptide): S. aureus; also recorded: S. epidermidis; also recorded: C. jeikeium; also recorded: C. xerosis; also recorded: C. striatum; also recorded: P. aeruginosa

1T-65 (HARAAVGVAELPRGAAVEVELIAAVRP; Peptide with targeting and/or antimicrobial activity)
Target(s) (microorganism bound by the targeting peptide): S. mutans; also recorded: S. aureus; also recorded: S. epidermidis; also recorded: C. jeikeium; also recorded: C. xerosis; also recorded: C. striatum; also recorded: P. aeruginosa

1T-66 (DTDCLSRAYAQRIDELDKQYAGIDKPL; Peptide with targeting and/or antimicrobial activity)
Target(s) (microorganism bound by the targeting peptide): S. mutans; also recorded: S. aureus; also recorded: S. epidermidis; also recorded: C. jeikeium; also recorded: C. xerosis; also recorded: C. striatum; also recorded: P. aeruginosa

1T-67 (GQRQRLTCGRVSGCSEGPSREAAR; Peptide with targeting and/or antimicrobial activity)
Target(s) (microorganism bound by the targeting peptide): S. aureus; also recorded: S. epidermidis; also recorded: C. jeikeium; also recorded: C. xerosis; also recorded: C. striatum; also recorded: P. aeruginosa

1T-68 (GGTKEIVYQRG; Peptide with targeting and/or antimicrobial activity)
Target(s) (microorganism bound by the targeting peptide): S. mutans; also recorded: S. aureus; also recorded: C. jeikeium; also recorded: C. xerosis; also recorded: C. striatum; also recorded: P. aeruginosa

1T-69 (ILSQEADRKKLF; Peptide with targeting and/or antimicrobial activity)
Target(s) (microorganism bound by the targeting peptide): S. mutans; also recorded: P. aeruginosa

1T-70 (NRQAQGERAHGEQQG; Peptide with targeting and/or antimicrobial activity)
Target(s) (microorganism bound by the targeting peptide): S. aureus; also recorded: C. jeikeium; also recorded: P. aeruginosa

1T-71 (KIDTNQWPPNKEG; Peptide with targeting and/or antimicrobial activity)
Target(s) (microorganism bound by the targeting peptide): P. aeruginosa

1T-72 (EPTDGVACKER; Peptide with targeting and/or antimicrobial activity)
Target(s) (microorganism bound by the targeting peptide): P. aeruginosa

1T-73 (GWWEELLHETILSKFKITKALELPIQL; Peptide with targeting and/or antimicrobial activity)
Target(s) (microorganism bound by the targeting peptide): S. pneumoniae

1T-74 (DIDWGRKISCAAGVAYGAIDGCATTV; Peptide with targeting and/or antimicrobial activity)
Target(s) (microorganism bound by the targeting peptide): S. pneumoniae

1T-75 (GVARGLQLGIKTRTQWGAATGAA; Peptide with targeting and/or antimicrobial activity)
Target(s) (microorganism bound by the targeting peptide): S. pneumoniae

1T-76 (EMRLSKFFRDFILWRKK; Peptide with targeting and/or antimicrobial activity)
Target(s) (microorganism bound by the targeting peptide): S. pneumoniae

1T-77 (EMRISRIILDFLFLRKK; Peptide with targeting and/or antimicrobial activity)
Target(s) (microorganism bound by the targeting peptide): S. pneumoniae

1T-78 (FFKTIFVLILGALGVAAGLYIEKNYIDK; Peptide with targeting and/or antimicrobial activity)
Target(s) (microorganism bound by the targeting peptide): S. pneumoniae

1T-79 (FGTPWSITNFWKKNFNDRPDFDSDRRRY; Peptide with targeting and/or antimicrobial activity)
Target(s) (microorganism bound by the targeting peptide): S. pneumoniae

1T-80 (GGNLGPGFGVIIP; Peptide with targeting and/or antimicrobial activity)
Target(s) (microorganism bound by the targeting peptide): S. pneumoniae

1T-81 (AIATGLDIVDGKFDGYLWA; Peptide with targeting and/or antimicrobial activity)
Target(s) (microorganism bound by the targeting peptide): S. pneumoniae

1T-82 (FGVGVGIALFMAGYAIGKDLRKKFGKSC; Peptide with targeting and/or antimicrobial activity)
Target(s) (microorganism bound by the targeting peptide): S. pneumoniae

1T-83 (QKPRKNETFIGYIQRYDIDGNGYQSLPCPQN; Peptide with targeting and/or antimicrobial activity)
Target(s) (microorganism bound by the targeting peptide): S. pneumoniae

1T-84 (FRKKRYGLSILLWLNAFTNLVNSIHAFYMTLF; Peptide with targeting and/or antimicrobial activity)
Target(s) (microorganism bound by the targeting peptide): S. pneumoniae

1T-86 (HRKNPVLGVGRRHRAHNVA; Peptide with targeting and/or antimicrobial activity)
Target(s) (microorganism bound by the targeting peptide): S. mitis; also recorded: S. oralis; also recorded: S. salivarious

1T-87 (EAVGQDLVDAHHP; Peptide with targeting and/or antimicrobial activity)
Target(s) (microorganism bound by the targeting peptide): S. mitis; also recorded: S. mutans; also recorded: S. oralis

1T-89 (HEDDKRRGMSVEVLGFEVVQHEE; Peptide with targeting and/or antimicrobial activity)
Target(s) (microorganism bound by the targeting peptide): S. mitis; also recorded: S. mutans

1T-90 (RNVIGQVL; Peptide with targeting and/or antimicrobial activity)
Target(s) (microorganism bound by the targeting peptide): S. gordonii; also recorded: S. mitis; also recorded: S. mutans; also recorded: S. oralis; also recorded: S. sanguinis

1T-91 (TSVRPGAAGAAVPAGAAGAAGAGWRWP; Peptide with targeting and/or antimicrobial activity)
Target(s) (microorganism bound by the targeting peptide): S. mitis; also recorded: S. mutans; also recorded: S. oralis; also recorded: S. sanguinis

1T-92 (GQDEGQRRAGVGEGQGVDG; Peptide with targeting and/or antimicrobial activity)
Target(s) (microorganism bound by the targeting peptide): S. mitis; also recorded: S. mutans

1T-93 (AMRSVNQA; Peptide with targeting and/or antimicrobial activity)
Target(s) (microorganism bound by the targeting peptide): S. epidermidis; also recorded: S. gordonii; also recorded: S. mitis; also recorded: S. mutans; also recorded: S. oralis; also recorded: S. sanguinis

1T-94 (DQVAHSGDMLVQARRRDS; Peptide with targeting and/or antimicrobial activity)
Target(s) (microorganism bound by the targeting peptide): S. mitis; also recorded: S. mutans; also recorded: S. oralis

1T-95 (GHLLRVGGRVGGVGGVAGACAQPFGGQ; Peptide with targeting and/or antimicrobial activity)
Target(s) (microorganism bound by the targeting peptide): S. gordonii; also recorded: S. mitis; also recorded: S. mutans; also recorded: S. oralis; also recorded: S. sanguinis

1T-96 (VAGACAQPFGGQ; Peptide with targeting and/or antimicrobial activity)
Target(s) (microorganism bound by the targeting peptide): S. gordonii; also recorded: S. mitis; also recorded: S. mutans; also recorded: S. oralis; also recorded: S. sanguinis
